The values below come from patent US12679866B2, “Peptide, and cell fusion agent and pharmaceutical composition for cancer therapy containing said peptide” (priority 2019, dated 2026).

Experiment [1] deals with RFL cells (rat lung fetal cells). As to the kind of experiment: Cell fusion activity in RFL cells. The experiment is classed as cell-based. Conditions: peptide 1 μg/mL, cultured 24-36 hours, nuclear staining. The procedure:
(§1) In this Example, the peptide 1 obtained in Example 1 was added to RFL cells (rat lung fetal cells) or LLC cells (Lewis lung carcinoma-derived cells), and the cell fusion activity of the peptide was examined.
(§2) RFL cells or LLC cells (2×10^6 cells) were suspended in 6 mL of RPMI-1640 medium (Wako, 189-02025) supplemented with 5% FBS (Biosera, Cat No. 015BS493) and 8×10^4 cells/0.25 mL were dispensed to each well of 24 well plate (Iwaki, 2820-024)), and cultured. The medium was removed, and a fresh medium (20 μL) and peptide 1 (1 μg/mL) were dispensed, and the cells were further cultured for 24-36 hours. After the culture was completed, the cells were fixed with methanol (Wako), and nuclear-stained with Gimza staining solution (Muto Kagaku 15003) for microscopic examination.

For experiment [2], the system named is LLC cells (Lewis lung carcinoma-derived cells). The experiment is described as follows: Cell fusion activity in LLC cells. The experiment is classed as cell-based. The settings on record: LLC (printed LCC) cells, peptide 1 μg/mL, cultured 24-36 hours, nuclear staining. As to the method:
as §1, §2

Experiment [3] relates to RM-4 cells. As to the kind of experiment: Cell fusion activity in RM-4 cells. The experiment is classed as cell-based, rat. Conditions: peptide 1 μg/mL, cultured 24-36 hours, nuclear staining. The procedure:
as §2
In this Example, the cell fusion activity of the peptide 6 was examined. The procedure of Example 2 was repeated, except that the peptide 6 was used instead of the peptide 1, and the RM-4 cells only used instead of the LCC cells. In connection with this, RM-4 cells are cancer cells in which RFL cells were infected with Moloney murine leukemia virus and selected.

In experiment [4] the test system is A549 cells (human alveolar epithelial adenocarcinoma cells). The experiment is described as follows: Anticancer effect on A549 cells transplanted into nude mice. Conditions: 25 mg/kg intravenous. The experiment is classed as in vivo. The procedure:
In this example, the anticancer effect of peptide 6 on A549 cells (human alveolar epithelial adenocarcinoma cells) was examined in vivo.
CAnN.Cg-Foxn1nu/CrlCrlj nude mice were divided into groups of 6 animals each. A549 cells suspended in PBS at a concentration of 4×10^6 cells/mL were transplanted subcutaneously to the right ventral part thereof. The peptide 6 was administered intravenously from the tail vein at a dose of 25 mg/kg (peptide 6 group) on 14, 17, 21, 24, 28, 31, 35, and 38 days later after tumor transplantation. Control group was administered PBS only.
Tumor volume and body weight were measured every 3 or 4 days, and the tumor was resected on 38 days after tumor transplantation (on […] after the start of peptide administration). The tumor volume was calculated from the formula “estimated tumor volume=(minor axis)^2×(major axis)÷2” by measuring the minor axis and major axis with a caliper. […] 5 mice were evaluated.

The test system of experiment [5] is RM-4 cells. The experiment is described as follows: Apoptosis induction in RM-4 cells (Caspase-3/7 and Annexin V, IncuCyte S3). The settings on record: 0.06 μg/mL peptide. The class given is cell-based, rat. The procedure: In this Example, the apoptosis ability of peptide 1 was examined using the RM-4 cells. An activity of Caspase-3/7 and an activity of AnnexinV (red fluorescence) which are indications of apoptosis, was measured using IncuCyte S3 live cell analysis system (Essen BioScience).
The activity of Caspase-3/7 activity is measured using an inert non-fluorescent (DEVD) substrate that can penetrate the cell membrane. An activated Caspase-3/7 cleaves the substrate, and thereby a DNA-bound green fluorescent label is released. The activity of Caspase-3/7 is measured by the intensity of green fluorescence.
The activity of Annexin V is measured using a photostable CF dye. CF dye emits a red fluorescent signal when bound to phosphatidylserine (PS). The activity of Annexin V is measured by the red fluorescent signal.
RM-4 cells were seeded on 96-well plates and 0.06 μg/mL of peptide 1 was added thereto. Caspase-3/7 Green Reagent (Unit size: 20 ul, 5 mM/vial) was diluted 500-fold with Ham's F-12K and added thereto. Then, Annexin V Red Reagent (Unit size: 100 tests/vial) was diluted 100-fold with Ham's F-12K and added thereto. They were measured using the IncuCyte S3 live cell analysis system, by continuously scanning every hour for 3 days with an objective lens of magnification of 10 times and 4 fields of view. As a control, RM-4 cells which were not treated with peptide 1, were used.

Experiment [6] has as its system RFL cells (rat lung fetal cells). As to the kind of experiment: Cell fusion activity in RFL cells. The experiment is classed as cell-based. Conditions: peptide 9 vs peptide 1, peptide 1 vs peptide 10.

No end group written: not given here.

As for “CH3-Pro-Ile-Val-Ser-Gln-Thr-Thr-Ala-Ile-Ala (Me-PIVSQTTAIA) [peptide 7]”, the “cell fusion activity (fusion cells with multiple nuclei, microscopy)” value in experiment [1] is “cells are fused and fusion cells with multiple nuclei were found”.

As for “CH3-Pro-Ile-Val-Ser-Gln-Thr-Thr-Ala-Leu-Ala (Me-PIVSQTTALA) [peptide 8]”, the “cell fusion activity (fusion cells with multiple nuclei, microscopy)” value was “cells are fused and fusion cells with multiple nuclei were found” in experiment [1]; “cells are fused and fusion cells with multiple nuclei were found” in experiment [2].

On to “CH3-Pro-Ile-Val-Ser-Thr-Gln-Thr-Ala-Ile-Ala (Me-PIVSTQTAIA) [peptide 5]”, for which the “cell fusion activity (fusion cells with multiple nuclei, microscopy)” value in experiment [1] was “cells are fused and fusion cells with multiple nuclei were found”.

“CH3-Pro-Ile-Val-Ser-Thr-Gln-Thr-Ala-Leu-Ala (Me-PIVSTQTALA) [peptide 6]”: the “cell fusion activity (fusion cells with multiple nuclei, microscopy)” value is “cells are fused and fusion cells with multiple nuclei were found” in experiment [1]; “cells are fused and fusion cells with multiple nuclei were found” with RM-4 cells [3]. Besides, the tumor volume result in experiment [4] (A549 subcutaneous in nude mice, 8 administrations, 28 days) is recorded as “tumor volumes were reduced”. Besides, the “histology of HE-stained excised tumor” value in experiment [4] (A549 tumor resected 38 days after transplantation) is listed as “the inside of the tumor was necrotic”.

With “CH3-Pro-Leu-Val-Ser-Gln-Thr-Thr-Ala-Ile-Ala (Me-PLVSQTTAIA) [peptide 3]”, the “cell fusion activity (fusion cells with multiple nuclei, microscopy)” value in experiment [1] is “cells are fused and fusion cells with multiple nuclei were found”.

With “CH3-Pro-Leu-Val-Ser-Gln-Thr-Thr-Ala-Leu-Ala (Me-PLVSQTTALA) [peptide 4]”, the “cell fusion activity (fusion cells with multiple nuclei, microscopy)” value in experiment [1] is “cells are fused and fusion cells with multiple nuclei were found”.

For “CH3-Pro-Leu-Val-Ser-Thr-Gln-Thr-Ala-Ile-Ala (Me-PLVSTQTAIA) [peptide 1]”, the “cell fusion activity (fusion cells with multiple nuclei, microscopy)” value in experiment [1] is “cells are fused and fusion cells with multiple nuclei were found”. Moreover, the “cell fusion activity (fusion cells with multiple nuclei, microscopy)” value in experiment [2] is “cells are fused and fusion cells with multiple nuclei were found”. In the experiment on RM-4 cells [5] (after 18 and 78 hours), the “apoptosis induction (fluorescence micrographs)” value is listed as “induced apoptosis in RM-4 cells”. In the experiment with RM-4 cells [5] (scanned every hour for 3 days), the “activity of Annexin V (red fluorescence)” value was “increased sharply between 10 and 20 hours, and then gradually increased”; the “activity of Caspase-3/7 (green fluorescence)” value was “increased sharply between 10 and 20 hours, and then gradually increased”. Besides, the “cell fusion activity compared with another peptide” value in experiment [6] is listed as “seemed to be stronger”.

With “CH3-Pro-Leu-Val-Ser-Thr-Gln-Thr-Ala-Ile-Ala-Thr-Ala (Me-PLVSTQTAIATA) [peptide 9]”, the “cell fusion activity (fusion cells with multiple nuclei, microscopy)” value in experiment [1] was “cells are fused and fusion cells with multiple nuclei were found”. In experiment [6], the “cell fusion activity compared with another peptide” value was “superior to peptide 1”.

In the case of “CH3-Pro-Leu-Val-Ser-Thr-Gln-Thr-Ala-Leu-Ala (Me-PLVSTQTALA) [peptide 2]”, the “cell fusion activity (fusion cells with multiple nuclei, microscopy)” value in experiment [1] was “cells are fused and fusion cells with multiple nuclei were found”.

Consider PLVSTQTAIA [peptide 10], for which the “cell fusion activity (fusion cells with multiple nuclei, microscopy)” value in experiment [1] was “cells are fused and fusion cells with multiple nuclei were found”.
